# Laboratory results reported in US7087623B2, “Thiazole and other heterocyclic ligands for mammalian dopamine, muscarinic and serotonin receptors and transporters, and methods of use thereof” (Sepracor Inc., priority 2001, dated 2006).
# Where two headings read alike, the source gives them in different places.
# Tests used:
# [1] = molecular target: T1, human dopamine D3 receptor (Homo sapiens, UniProt P35462); assay: Radioligand binding assay, human dopamine D3 receptors ([3H]Spiperone)
# T1 construct: expressed in transfected cells; host or cells: CHO
# Method: The assay for binding to human D3 receptors was conducted according to Sokoloff, P. et al. Nature 1990, 347, 146.
# CHO cells stably transfected with a plasmid encoding the human dopamine D3 receptor were used to prepare membranes in modified Tris-HCl pH 7.4 buffer using standard techniques. […] Non-specific binding was estimated in the presence of 25 μM S-(−)-sulpiride. […] See Sokoloff, P. et al. “Molecular cloning and characterization of a novel dopamine receptor (D3) as a target for neuroleptics” Nature 347: 146–151, 1990.
# (§1) The human 5-HT2a and 5-HT2b screens were conducted according to Bonhaus, D. W. et al. Br. J. Pharmacol. 1995, 115, 622. The human […], W. A. et al. J. Neurochem. 1997, 69, 1449. The human 5-HT6 screen was conducted according to Monsama, F. J. et al. Mol. Pharmacol. 1993, 43, 320. The assay to human D3 receptors was conducted according to Sokoloff, P. et al. Nature 1990, 347;146. The human dopamine transporter assay was conducted according to Gu, H. et. al. J. Biol. Chem. 1994, 269 (10);7124; and Giros, B. et al. Trends. Pharmacol. Sci. 1993, 14: 43. The human muscarinic M1–M4 screens were conducted according to Buckley N. J. et al. Mol. Pharmacol. 1989, 35:469.
# [2] = molecular target: T2, human serotonin 5-HT6 receptor (Homo sapiens, UniProt P50406); assay: Radioligand binding assay, human 5-HT6 receptors ([3H]LSD)
# T2 construct: expressed in transfected cells; host or cells: HeLa/E6-7
# Method: (§2) The human 5-HT2a and 5-HT2b screens were conducted according to Bonhaus, D. W. et al. Br. J. Pharmacol. 1995, 115, 622. The human 5-HT2c screen was conducted according to Wolf, W. A. et al. J. Neurochem. 1997, 69, 1449. The human 5-HT6 screen was conducted according to Monsma, F. J. et al. Mol. Pharmacol. 1993, 43, 320.
# This assay measures binding of [^3H]LSD (lysergic acid diethylamide) to human serotonin 5-HT6 receptors. HeLa/E6–7 cells stably transfected with a plasmid encoding the human serotonin 5-HT6 receptor were used to prepare membranes in modified Tris-HCl pH 7.4 buffer using standard techniques. A 30 μg aliquot of membrane was incubated with 1.5 nM [^3H]LSD for 120 minutes at 37° C. Non-specific binding was estimated in the presence of 5 μM 5-HT. Membranes were filtered and washed 3 times and the filters were counted to determine [^3H]LSD specifically bound. See Monsma, Jr., F. J. et al. “Cloning and expression of a novel serotonin receptor with high affinity for tricyclic psychotropic drugs” Mol. Pharmacol. 43: 320–327, 1993.
# as §1
# [3] = molecular target: T3, human dopamine transporter (Homo sapiens, UniProt Q01959); assay: Binding to human dopamine transporter ([125I]RTI-55); settings: human; Example 100 table; read-out: IC50 (nM) DAT
# T3 construct: expressed in transfected cells; host or cells: CHO-K1
# Method: CHO-K1 cell membranes stably transfected with a plasmid encoding the human dopamine transporter were prepared in modified Tris-HCl pH 7.4 buffer using standard techniques. […] Non-specific binding was estimated in the presence of 10 μM nomifensine. […] Trends. […]
# [4] = molecular target: T4, human serotonin 5-HT2A receptor (Homo sapiens, UniProt P28223); assay: Radioligand binding assay, human 5-HT2A receptors ([3H]Ketanserin)
# T4 construct: expressed in transfected cells; host or cells: CHO-K1
# Method: as §2
# CHO-K1 cells stably transfected with a plasmid encoding the human serotonin 5-HT2A receptor were used to prepare membranes in modified Tris-HCl pH 7.7 buffer using standard techniques. […] Non-specific binding was estimated in the presence of 1 μM mianserin. […] See Bonhaus, D. W. et al. “The pharmacology and distribution of human 5-hydroxytryptamine2B (5-HT2B) receptor gene products: comparison with 5-HT2A and 5-HT2C receptors” Brit. J. Pharmacol. 115: 622–628, 1995; and Saucier, C and Albert, P. R. “Identification of an endogenous 5-hydroxytryptamine2A receptor in NIH-3T3 cells: agonist-induced down-regulation involves decreases in receptor RNA and number” J. Neurochem. 68: 1998–2011, 1997.
# as §1
# [5] = molecular target: T5, human serotonin 5-HT2B receptor (Homo sapiens, UniProt P41595); assay: Radioligand binding assay, human 5-HT2B receptors ([3H]LSD)
# T5 construct: expressed in transfected cells; host or cells: CHO-K1
# Method: This assay measures binding of [^3H]LSD to human serotonin 5-HT2B receptors. CHO-K1 cells stably transfected with a plasmid encoding the human serotonin 5-HT2B receptor were used to prepare membranes in modified Tris-HCl pH 7.4 buffer using standard techniques. […] Non-specific binding was estimated in the presence of 10 μM serotonin. Membranes were filtered and washed 3 times and the filters were counted to determine [^3H]LSD specifically bound. See Bonhaus, D. W. et al. “The pharmacology and distribution of human 5-hydroxytryptamine2B (5-HT2B) receptor gene products: comparison with 5-HT2A and 5-HT2C receptors” Brit.
# The human 5-HT2b screen was conducted according to Wolf, W. A. et al. J. Neurochem.
# [6] = molecular target: T6, human serotonin 5-HT2C receptor (Homo sapiens, UniProt P28335); assay: Radioligand binding assay, human 5-HT2C receptors ([3H]Mesulergine)
# T6 construct: expressed in transfected cells; host or cells: CHO-K1
# T6 sequence (P28335 33-458): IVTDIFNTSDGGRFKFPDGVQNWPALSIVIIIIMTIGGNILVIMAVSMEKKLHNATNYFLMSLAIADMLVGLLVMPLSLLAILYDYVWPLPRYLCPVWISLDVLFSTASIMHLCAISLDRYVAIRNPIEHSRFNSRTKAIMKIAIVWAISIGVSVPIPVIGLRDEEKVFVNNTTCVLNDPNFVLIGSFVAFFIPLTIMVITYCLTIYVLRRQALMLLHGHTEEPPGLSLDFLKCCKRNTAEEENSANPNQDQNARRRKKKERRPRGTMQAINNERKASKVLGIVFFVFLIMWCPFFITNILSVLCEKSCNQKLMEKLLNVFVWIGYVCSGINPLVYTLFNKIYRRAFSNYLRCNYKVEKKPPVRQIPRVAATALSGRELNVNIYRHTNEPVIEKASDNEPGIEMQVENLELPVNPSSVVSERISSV
# Method: as §2
# CHO-K1 cells stably transfected with a plasmid encoding the human serotonin 5-HT2C receptor were used to prepare membranes in modified Tris-HCl pH 7.7 buffer using standard techniques. […] Non-specific binding was estimated in the presence of 1 μM mianserin. […] See Wolf, W. A. and Schutz, J. S. “The serotonin 5-HT2C receptor is a prominent serotonin receptor in basal ganglia: evidence from functional studies on serotonin-mediated phosphoinositide hydrolysis” J. Neurochem. 69: 1449–1458, 1997.
# as §1
# [7] = human, Example 100 table, read-out: IC50 (nM) D3
# [8] = human, Example 100 table, read-out: IC50 (nM) 5-HT6
# [9] = human 5-HT2a, Example 16 table, read-out: IC50 (nM) 5-HT2a
# [10] = human 5-HT2b, Example 16 table, read-out: IC50 (nM) 5-HT2b
# [11] = Example 20 table, read-out: IC50 (nM) Against Human D3 Receptors
# [12] = human 5-HT6, Example 16 table, read-out: IC50 (nM) 5-HT6
# [13] = human 5-HT2c, Example 16 table, read-out: IC50 (nM) 5-HT2c
# T1 sequence (P35462 whole entry): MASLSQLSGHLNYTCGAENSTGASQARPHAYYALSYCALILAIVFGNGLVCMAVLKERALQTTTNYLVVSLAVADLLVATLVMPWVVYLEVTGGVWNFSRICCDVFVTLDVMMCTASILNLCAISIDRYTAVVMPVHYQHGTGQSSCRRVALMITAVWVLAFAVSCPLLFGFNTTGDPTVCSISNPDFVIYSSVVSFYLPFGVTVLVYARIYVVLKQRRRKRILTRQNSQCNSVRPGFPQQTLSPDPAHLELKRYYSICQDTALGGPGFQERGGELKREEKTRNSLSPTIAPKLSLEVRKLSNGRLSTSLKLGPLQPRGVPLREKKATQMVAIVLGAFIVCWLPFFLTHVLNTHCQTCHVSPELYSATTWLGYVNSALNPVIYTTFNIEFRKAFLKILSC
# T5 sequence (P41595 whole entry): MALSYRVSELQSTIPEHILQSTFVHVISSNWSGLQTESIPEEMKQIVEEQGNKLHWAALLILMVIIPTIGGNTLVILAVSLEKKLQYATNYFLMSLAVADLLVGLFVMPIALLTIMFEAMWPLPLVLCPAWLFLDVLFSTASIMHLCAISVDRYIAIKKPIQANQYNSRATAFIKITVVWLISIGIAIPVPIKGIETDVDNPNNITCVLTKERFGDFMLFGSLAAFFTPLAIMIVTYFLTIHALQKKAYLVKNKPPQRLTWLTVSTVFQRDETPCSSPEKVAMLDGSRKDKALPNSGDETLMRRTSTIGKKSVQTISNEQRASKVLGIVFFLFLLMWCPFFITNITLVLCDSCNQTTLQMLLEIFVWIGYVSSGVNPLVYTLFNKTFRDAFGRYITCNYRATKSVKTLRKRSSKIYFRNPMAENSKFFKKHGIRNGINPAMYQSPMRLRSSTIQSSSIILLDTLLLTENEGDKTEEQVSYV
# T2 sequence (P50406 whole entry): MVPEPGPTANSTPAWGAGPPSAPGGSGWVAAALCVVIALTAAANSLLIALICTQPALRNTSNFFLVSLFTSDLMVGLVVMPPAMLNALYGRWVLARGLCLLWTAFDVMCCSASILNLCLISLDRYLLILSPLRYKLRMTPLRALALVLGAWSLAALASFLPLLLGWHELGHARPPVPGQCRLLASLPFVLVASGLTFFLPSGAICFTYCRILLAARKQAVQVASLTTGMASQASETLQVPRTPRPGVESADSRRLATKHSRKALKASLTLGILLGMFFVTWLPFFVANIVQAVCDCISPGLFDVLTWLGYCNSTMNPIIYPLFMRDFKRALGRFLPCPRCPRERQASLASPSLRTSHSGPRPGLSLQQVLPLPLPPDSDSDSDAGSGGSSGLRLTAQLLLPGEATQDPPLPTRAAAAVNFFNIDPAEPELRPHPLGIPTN
# T4 sequence (P28223 whole entry): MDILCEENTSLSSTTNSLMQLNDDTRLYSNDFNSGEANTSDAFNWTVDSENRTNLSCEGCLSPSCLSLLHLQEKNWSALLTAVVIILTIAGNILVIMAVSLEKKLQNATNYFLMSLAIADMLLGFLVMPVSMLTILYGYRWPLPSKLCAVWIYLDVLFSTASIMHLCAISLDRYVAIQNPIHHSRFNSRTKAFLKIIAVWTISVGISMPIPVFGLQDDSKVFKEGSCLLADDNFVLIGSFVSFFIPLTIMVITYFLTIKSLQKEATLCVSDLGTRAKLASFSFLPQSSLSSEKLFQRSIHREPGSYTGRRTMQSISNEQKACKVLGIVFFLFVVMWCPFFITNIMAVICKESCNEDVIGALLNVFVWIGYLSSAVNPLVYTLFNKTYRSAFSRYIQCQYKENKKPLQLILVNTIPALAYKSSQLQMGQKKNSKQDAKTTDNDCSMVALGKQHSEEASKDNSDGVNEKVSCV
# T3 sequence (Q01959 whole entry): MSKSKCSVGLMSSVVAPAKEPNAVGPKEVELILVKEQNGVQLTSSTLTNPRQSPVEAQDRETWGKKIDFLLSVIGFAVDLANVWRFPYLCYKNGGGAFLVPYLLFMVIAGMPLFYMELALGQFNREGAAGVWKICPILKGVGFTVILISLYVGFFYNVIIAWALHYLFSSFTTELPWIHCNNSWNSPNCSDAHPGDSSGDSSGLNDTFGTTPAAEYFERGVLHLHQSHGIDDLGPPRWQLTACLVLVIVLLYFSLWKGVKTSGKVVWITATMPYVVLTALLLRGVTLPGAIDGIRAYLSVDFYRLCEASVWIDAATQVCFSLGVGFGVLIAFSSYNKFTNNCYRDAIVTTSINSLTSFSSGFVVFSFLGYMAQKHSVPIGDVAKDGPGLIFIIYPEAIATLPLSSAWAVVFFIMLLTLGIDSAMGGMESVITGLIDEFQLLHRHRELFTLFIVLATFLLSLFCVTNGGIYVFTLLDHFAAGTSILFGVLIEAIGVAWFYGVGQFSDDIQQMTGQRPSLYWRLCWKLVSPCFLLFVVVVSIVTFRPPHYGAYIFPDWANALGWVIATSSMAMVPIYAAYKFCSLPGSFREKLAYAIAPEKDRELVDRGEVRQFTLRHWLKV
SMILES,"IC50 [4, 9] [nM]","IC50 [5, 10] [nM]","IC50 [1, 11] [nM]","IC50 [2, 12] [nM]","IC50 [6, 13] [nM]",also measured
"CN1CCCC1CCNc1nc(C2(c3ccc(Cl)cc3)CCOCC2)cs1 (racemic) [Compound 125, {4-[4-(4-chlorophenyl)-tetrahydropyran-4-yl]-thiazol-2-yl}-[2-(1-methyl-pyrrolidin-2-yl)-ethyl]-amine]",–,–,–,–,–,"IC50 [1, 7]: > 1000 nM; IC50 [2, 8]: > 1000 nM; IC50 [3]: > 1000 nM"
CN1CCN(c2nc(C3(c4ccc(Cl)cc4)CCCCC3)cs2)CC1 [Compound 34],> 1000,< 100,< 1000,< 1000,< 100,–
CN1CCN(c2nc(C3(c4ccc(C(F)(F)F)cc4)CCOCC3)cs2)CC1 [Compound 43],> 1000,> 1000,< 1000,< 1000,> 1000,–
CN1CCN(c2nc(C3(c4ccc(F)cc4)CCOCC3)cs2)CC1 [Compound 47],–,–,–,–,–,"IC50 ([4]; IC50 (nM) 5-HT2a, human 5-HT2a, Example 16 table): > 1000 nM; IC50 [5]: > 1000 nM; IC50 ([1]; IC50 (nM) Against Human D3 Receptors, Example 20 table): > 1000 nM; IC50 ([2]; IC50 (nM) 5-HT6, human 5-HT6, Example 16 table): < 1000 nM; IC50 ([6]; IC50 (nM) 5-HT2c, human 5-HT2c, Example 16 table): > 1000 nM"
COc1ccc(C2(c3csc(N4CCN(C)CC4)n3)CCOCC2)cc1 [Compound 51],> 1000,> 1000,> 1000,< 1000,> 1000,–
CN1CCN(c2nc(C3(c4ccc(OC(F)(F)F)cc4)CCOCC3)cs2)CC1 [Compound 55],< 1000,> 1000,< 1000,> 1000,< 1000,–
COc1cccc(C2(c3csc(N4CCN(C)CC4)n3)CCOCC2)c1 [Compound 67],–,–,–,–,–,"IC50 ([4]; human, Example 100 table, read-out: IC50 (nM) 5-HT2A): > 1000 nM; IC50 ([5]; human, Example 100 table, read-out: IC50 (nM) 5-HT2B): > 1000 nM; IC50 [1, 7]: > 1000 nM; IC50 [2, 8]: < 1000 nM; IC50 ([6]; human, Example 100 table, read-out: IC50 (nM) 5-HT2C): > 1000 nM"

# Second part, led by results:
"IC50 [4, 9] [nM]","IC50 [5, 10] [nM]","IC50 [1, 11] [nM]","IC50 [2, 12] [nM]","IC50 [6, 13] [nM]",SMILES,also measured
< 1000,< 1000,> 1000,< 1000,< 1000,"Clc1ccc(C2(c3csc(C4CCNCC4)n3)CCC2)cc1 [Compound 30, 4-{4-[1-(4-chlorophenyl)cyclobutyl]thiazol-2-yl}-piperidine]",–
> 1000,< 1000,< 1000,< 1000,< 1000,CN1CCC(c2nc(C3(c4ccc(Cl)cc4)CCC3)cs2)CC1 [Compound 31],–
< 1000,< 10,< 1000,< 1000,< 100,CN1CCN(c2nc(Cc3csc4ccc(Cl)cc34)cs2)CC1 [Compound 33],–
> 1000,> 1000,> 1000,< 1000,> 1000,Clc1cccc(C2(c3csc(C4CCCNC4)n3)CCOCC2)c1 (stereo not shown) [Compound 38],–
< 1000,< 1000,> 1000,< 1000,< 1000,Clc1ccc(C2(c3nc(N4CCNCC4)sc3Cl)CCOCC2)cc1 [Compound 39],–
